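Where inhibition never reached the appropriate level, the endpoint shown equals the highest concentration tested. Otherwise, values were interpolated linearly from a five-concentration, 48-hour dose response in 96-well plates. GI50 is the concentration that inhibits growth by half. TGI: concentration producing complete growth inhibition.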
Tests used:
Assay in all cases: NCI tumour cell line growth inhibition, 48 h
COLO 205 colon = test system: COLO 205 colon
UACC-62 melanoma = test system: UACC-62 melanoma
HCC-2998 colon = test system: HCC-2998 colon
UACC-257 melanoma = test system: UACC-257 melanoma
DLD-1 colon = test system: DLD-1 colon
SW-620 colon = test system: SW-620 colon
A498 renal = test system: A498 renal
M19-MEL melanoma = test system: M19-MEL melanoma
PC-3 prostate = test system: PC-3 prostate
T-47D breast = test system: T-47D breast

## Nc1nc2sc3ccccc3c(=O)n2n1
COLO 205 colon
  TGI: > 100 µM
UACC-62 melanoma
  TGI: > 100 µM
HCC-2998 colon
  TGI: > 100 µM
UACC-257 melanoma
  TGI: > 100 µM
DLD-1 colon
  TGI: > 100 µM
SW-620 colon
  TGI: > 100 µM

## Cc1oc2c(C)c3oc(=O)cc(C)c3cc2c1CNC(=O)[C@@H]1OCCOCCOCCOCCOCCOC1C(=O)O (stereo not given in full)
COLO 205 colon
  TGI: > 100 µM
UACC-62 melanoma
  TGI: > 100 µM
A498 renal
  TGI: > 100 µM
M19-MEL melanoma
  TGI: > 100 µM
HCC-2998 colon
  TGI: > 100 µM
UACC-257 melanoma
  TGI: > 100 µM
DLD-1 colon
  TGI: > 100 µM
SW-620 colon
  TGI: > 100 µM

## CN(C)CCN(C)CC1COC(C)(C)O1 (stereo not given)
COLO 205 colon
  TGI: > 100 µM
UACC-62 melanoma
  TGI: > 100 µM
A498 renal
  TGI: > 100 µM
M19-MEL melanoma
  TGI: > 100 µM
HCC-2998 colon
  TGI: > 100 µM
UACC-257 melanoma
  TGI: > 100 µM
DLD-1 colon
  TGI: > 100 µM
SW-620 colon
  TGI: > 100 µM

## CSc1cccc(-n2c3nc(=O)n(C)c(=O)c-3nc3ccccc32)c1
COLO 205 colon
  TGI: 11 µM
UACC-62 melanoma
  TGI: 6.14 µM
A498 renal
  TGI: 25.3 µM
M19-MEL melanoma
  TGI: 5.03 µM
HCC-2998 colon
  TGI: 16.5 µM
DLD-1 colon
  TGI: 32.6 µM
SW-620 colon
  TGI: 22 µM

## COc1ccc(NC(=O)CC(=O)N2N=C(N(CCC#N)c3ccccc3Cl)CC2c2ccccc2)cc1 (stereo not given)
COLO 205 colon
  TGI: > 100 µM
UACC-62 melanoma
  TGI: > 100 µM
A498 renal
  TGI: > 100 µM
M19-MEL melanoma
  TGI: > 100 µM
HCC-2998 colon
  TGI: > 100 µM
UACC-257 melanoma
  TGI: > 100 µM
DLD-1 colon
  TGI: > 100 µM
SW-620 colon
  TGI: > 100 µM

## COc1ccc2c(c1)C(=O)N1CCOC1C2C(=O)O (stereo not given)
UACC-62 melanoma
  TGI: > 100 µM
A498 renal
  TGI: > 100 µM
M19-MEL melanoma
  TGI: > 100 µM
HCC-2998 colon
  TGI: > 100 µM
UACC-257 melanoma
  TGI: > 100 µM
DLD-1 colon
  TGI: > 100 µM
SW-620 colon
  TGI: > 100 µM

## NC(=O)C#CC#CC#CCO
COLO 205 colon
  TGI: 2.65 µM
UACC-62 melanoma
  TGI: 4.32 µM
A498 renal
  TGI: 14.9 µM
M19-MEL melanoma
  TGI: 3.26 µM
HCC-2998 colon
  TGI: 3.1 µM
UACC-257 melanoma
  TGI: 5.87 µM
SW-620 colon
  TGI: 3.33 µM

## COC(=O)C1CCC(Nc2ccc(C)cc2C)=N1 (stereo not given)
COLO 205 colon
  TGI: > 100 µM
UACC-62 melanoma
  TGI: > 100 µM
A498 renal
  TGI: > 100 µM
M19-MEL melanoma
  TGI: > 100 µM
HCC-2998 colon
  TGI: > 100 µM
UACC-257 melanoma
  TGI: > 100 µM
DLD-1 colon
  TGI: > 100 µM
SW-620 colon
  TGI: > 100 µM

## N#CC(C(=O)/C(=N/NC(=O)c1ccccc1O)C(C#N)c1ccccc1)c1ccccc1 (stereo not given)
COLO 205 colon
  TGI: > 100 µM
UACC-62 melanoma
  TGI: > 100 µM
A498 renal
  TGI: > 100 µM
M19-MEL melanoma
  TGI: > 100 µM
HCC-2998 colon
  TGI: > 100 µM
UACC-257 melanoma
  TGI: > 100 µM
DLD-1 colon
  TGI: > 100 µM

## CCCCCCCC(=O)NCC(O)CNC(=O)CCCCCCC
COLO 205 colon
  TGI: > 100 µM
UACC-62 melanoma
  TGI: > 100 µM
A498 renal
  TGI: > 100 µM
M19-MEL melanoma
  TGI: > 100 µM
HCC-2998 colon
  TGI: > 100 µM
UACC-257 melanoma
  TGI: > 100 µM
DLD-1 colon
  TGI: > 100 µM
SW-620 colon
  TGI: > 100 µM

## N#CC(/C(=N/NC(=O)C(=O)NN)C(=O)Nc1nc([N+](=O)[O-])cs1)c1ccc(Cl)cc1 (stereo not given)
COLO 205 colon
  TGI: > 100 µM
UACC-62 melanoma
  TGI: > 100 µM
M19-MEL melanoma
  TGI: > 100 µM
HCC-2998 colon
  TGI: > 100 µM
UACC-257 melanoma
  TGI: > 100 µM
DLD-1 colon
  TGI: > 100 µM
SW-620 colon
  TGI: > 100 µM

## CC1OC(n2ccc(=O)[nH]c2=O)C=C(OC(=O)c2ccccc2)C1=O (stereo not given)
COLO 205 colon
  TGI: > 100 µM
UACC-62 melanoma
  TGI: > 100 µM
M19-MEL melanoma
  TGI: > 100 µM
UACC-257 melanoma
  TGI: > 100 µM
DLD-1 colon
  TGI: > 100 µM
SW-620 colon
  TGI: > 100 µM

## [Cl][Sn]([Cl])([c]1ccccc1)[c]1ccccc1
UACC-62 melanoma
  GI50: 2.87 µM
  TGI: 9.08 µM
M19-MEL melanoma
  GI50: 19.5 µM
  TGI: 68.6 µM
HCC-2998 colon
  GI50: 15 µM
  TGI: 28.5 µM
UACC-257 melanoma
  GI50: 13.6 µM
  TGI: 27 µM
DLD-1 colon
  GI50: 4.51 µM
  TGI: 17.5 µM
SW-620 colon
  GI50: 3.02 µM
  TGI: 10.2 µM

## Cc1ccccc1C1=[N+]([O-])c2ccccc2C1=O
COLO 205 colon
  TGI: 29.1 µM
UACC-62 melanoma
  TGI: 34.6 µM
A498 renal
  TGI: > 100 µM
M19-MEL melanoma
  TGI: 28.5 µM
UACC-257 melanoma
  TGI: 27.9 µM
DLD-1 colon
  TGI: 31.9 µM
SW-620 colon
  TGI: 45.1 µM

## CCOc1ccc(NC(=O)C2=C(C)NC(C)=C(C(=O)Nc3ccc(OCC)cc3)C2c2ccc(O)c(OC)c2)cc1
COLO 205 colon
  TGI: > 100 µM
A498 renal
  TGI: 66.7 µM
M19-MEL melanoma
  TGI: > 100 µM
HCC-2998 colon
  TGI: 76.1 µM
UACC-257 melanoma
  TGI: > 100 µM
DLD-1 colon
  TGI: > 100 µM
SW-620 colon
  TGI: > 100 µM

## Nc1nc(NCCO)c(N=O)c(=O)[nH]1
COLO 205 colon
  TGI: > 100 µM
UACC-62 melanoma
  TGI: > 100 µM
A498 renal
  TGI: > 100 µM
M19-MEL melanoma
  TGI: > 100 µM
UACC-257 melanoma
  TGI: > 100 µM
DLD-1 colon
  TGI: > 100 µM
SW-620 colon
  TGI: > 100 µM

## N=C(N)c1ccc(OCCOCCOc2ccc(C(=N)N)cc2)cc1
COLO 205 colon
  GI50: 50.1 µM
  TGI: > 100 µM
UACC-62 melanoma
  GI50: > 100 µM
  TGI: > 100 µM
A498 renal
  GI50: 63.7 µM
  TGI: > 100 µM
HCC-2998 colon
  GI50: > 100 µM
  TGI: > 100 µM
PC-3 prostate
  GI50: > 100 µM
  TGI: > 100 µM
T-47D breast
  GI50: 82.5 µM
  TGI: > 100 µM
UACC-257 melanoma
  GI50: 38.3 µM
  TGI: > 100 µM
SW-620 colon
  GI50: > 100 µM
  TGI: > 100 µM

## COc1cc2c3c(n(CCCN(CCN)CCCn4c5c(c6cc(OC)c(OC)cc6c4=O)C(=O)c4cc6c(cc4-5)OCO6)c(=O)c2cc1OC)-c1cc2c(cc1C3=O)OCO2
COLO 205 colon
  GI50: 0.645 µM
  TGI: > 57 µM
UACC-62 melanoma
  GI50: 0.24 µM
  TGI: 0.858 µM
A498 renal
  GI50: 6.71 µM
  TGI: 25.7 µM
HCC-2998 colon
  GI50: 0.407 µM
  TGI: 5.98 µM
PC-3 prostate
  GI50: 2.57 µM
  TGI: > 45.2 µM
T-47D breast
  GI50: 0.457 µM
  TGI: > 100 µM
UACC-257 melanoma
  GI50: 11.6 µM
  TGI: > 89.1 µM
SW-620 colon
  GI50: 0.719 µM
  TGI: > 70.7 µM

## C/C=C/C/C=C/CCC(=O)[C@H]1O[C@H]1C(N)=O
COLO 205 colon
  GI50: 15.3 µM
  TGI: 31.5 µM
UACC-62 melanoma
  GI50: 11.4 µM
  TGI: 23.9 µM
A498 renal
  GI50: 17.4 µM
  TGI: 43.7 µM
HCC-2998 colon
  GI50: 15 µM
  TGI: 28.5 µM
PC-3 prostate
  TGI: 40.7 µM
T-47D breast
  GI50: 13.7 µM
  TGI: 34 µM
UACC-257 melanoma
  GI50: 13.1 µM
  TGI: 27.3 µM
SW-620 colon
  GI50: 11.9 µM
  TGI: 27.9 µM

## Cc1ccccc1C1OC(=O)c2ccccc21 (stereo not given)
COLO 205 colon
  TGI: > 100 µM
UACC-62 melanoma
  TGI: > 100 µM
A498 renal
  TGI: > 100 µM
M19-MEL melanoma
  TGI: > 100 µM
HCC-2998 colon
  TGI: > 100 µM
DLD-1 colon
  TGI: > 100 µM
SW-620 colon
  TGI: > 100 µM

## CCOC(=O)/C(=N\OC)C(O)C(F)(F)F (stereo not given)
COLO 205 colon
  TGI: > 100 µM
UACC-62 melanoma
  TGI: > 100 µM
A498 renal
  TGI: > 100 µM
HCC-2998 colon
  TGI: > 100 µM
PC-3 prostate
  TGI: > 100 µM
T-47D breast
  TGI: > 100 µM
UACC-257 melanoma
  TGI: > 100 µM
SW-620 colon
  TGI: > 100 µM

## O=C(C=Nc1ccccc1C(=O)[O-])c1cccs1.O=C(C=Nc1ccccc1C(=O)[O-])c1cccs1.[Co+2]
COLO 205 colon
  TGI: > 100 µM
UACC-62 melanoma
  TGI: > 100 µM
A498 renal
  TGI: > 100 µM
M19-MEL melanoma
  GI50: > 100 µM
  TGI: > 100 µM
HCC-2998 colon
  TGI: > 100 µM
UACC-257 melanoma
  TGI: > 100 µM
DLD-1 colon
  TGI: > 100 µM
SW-620 colon
  TGI: > 100 µM

## CCCOC(=O)C1CCC(=O)N1C(=O)C(C)Cl (stereo not given)
COLO 205 colon
  TGI: > 100 µM
UACC-62 melanoma
  TGI: > 100 µM
A498 renal
  TGI: > 100 µM
M19-MEL melanoma
  TGI: > 100 µM
HCC-2998 colon
  TGI: > 100 µM
UACC-257 melanoma
  TGI: > 100 µM
DLD-1 colon
  TGI: > 100 µM
SW-620 colon
  TGI: > 100 µM

## CC(=O)N1N=C(c2ccc(Nc3nc(Nc4ccc(Cl)cc4)nc(Nc4ccc(Cl)cc4)n3)cc2)CC1c1ccc([N+](=O)[O-])cc1 (stereo not given)
COLO 205 colon
  GI50: 1.82 µM
  TGI: 6.64 µM
UACC-62 melanoma
  GI50: 11.9 µM
  TGI: 34.9 µM
A498 renal
  GI50: 1.97 µM
  TGI: 19.6 µM
HCC-2998 colon
  GI50: 19.3 µM
  TGI: > 80.1 µM
PC-3 prostate
  GI50: 2.92 µM
  TGI: > 69.4 µM
T-47D breast
  GI50: 1.74 µM
  TGI: 7.2 µM
UACC-257 melanoma
  GI50: 11.4 µM
  TGI: > 72.4 µM
SW-620 colon
  GI50: 8.77 µM
  TGI: > 100 µM
